Measured values taken from patent publication US20220281848A1, “PYRAZOLE-SUBSTITUTED PYRROLIDINONES AS HERBICIDES” (FMC Corporation, priority 2019, published 2022).

Test system: plants
Test: Test D pre-emergence, other plants of Tables D1 and D3
Format: in vivo
Details: for damage to plant, ALOMY / damage to plant, AVEFA / damage to plant, BEAVA / damage to plant, BROTE / damage to plant, BRSNN / damage to plant, HORVW / damage to plant, SINAR: pre-emergence, 100=total damage, 0=no damage; for ABUTH damage to plant (100=total damage; 0=no damage) / AMARE damage to plant (100=total damage; 0=no damage) / DIGSA damage to plant (100=total damage; 0=no damage) / ECHCG damage to plant (100=total damage; 0=no damage) / ORYSA damage to plant (100=total damage; 0=no damage) / PANMI damage to plant (100=total damage; 0=no damage) / SETFA damage to plant (100=total damage; 0=no damage): preemergent
In short: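 Seeds treated with herbicide safener; sown in soil; glasshouse, 16 h light, 65% humidity. Sprayed day 1 (pre) or ~day 12 (post). Spray in 0.2% v/v adjuvant. Scored 0–100 damage: 20 DAA pre, 15 d post.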

CN1CC(c2cc(C(F)(F)F)n(C)n2)C(C(=O)Nc2cccc(F)n2)C1=O (racemic) [Compound 24]
damage to plant, ALOMY (rate 15, 20 DAA): 0 | damage to plant, AVEFA (rate 15, 20 DAA): 0 | damage to plant, BEAVA (rate 15, 20 DAA): 0 | damage to plant, BROTE (rate 15, 20 DAA): 0 | damage to plant, BRSNN (rate 15, 20 DAA): 0 | damage to plant, HORVW (rate 15, 20 DAA): 0 | damage to plant, SINAR (rate 15, 20 DAA): 0 | damage to plant, ALOMY (rate 30, 20 DAA): 0 | damage to plant, AVEFA (rate 30, 20 DAA): 0 | damage to plant, BEAVA (rate 30, 20 DAA): 0 | damage to plant, BROTE (rate 30, 20 DAA): 0 | damage to plant, BRSNN (rate 30, 20 DAA): 0 | damage to plant, HORVW (rate 30, 20 DAA): 0 | damage to plant, SINAR (rate 30, 20 DAA): 0 | damage to plant, ALOMY (rate 60, 20 DAA): 0 | damage to plant, AVEFA (rate 60, 20 DAA): 0 | damage to plant, BEAVA (rate 60, 20 DAA): 0 | damage to plant, BROTE (rate 60, 20 DAA): 0 | damage to plant, BRSNN (rate 60, 20 DAA): 0 | damage to plant, HORVW (rate 60, 20 DAA): 0 | damage to plant, SINAR (rate 60, 20 DAA): 0 | damage to plant, ALOMY (rate 130, 20 DAA): 0 | damage to plant, AVEFA (rate 130, 20 DAA): 0 | damage to plant, BEAVA (rate 130, 20 DAA): 0 | damage to plant, BROTE (rate 130, 20 DAA): 0 | damage to plant, BRSNN (rate 130, 20 DAA): 0 | damage to plant, HORVW (rate 130, 20 DAA): 0 | damage to plant, SINAR (rate 130, 20 DAA): 0 | damage to plant, ALOMY (rate 250, 20 DAA): 0 | damage to plant, AVEFA (rate 250, 20 DAA): 0 | damage to plant, BEAVA (rate 250, 20 DAA): 0 | damage to plant, BROTE (rate 250, 20 DAA): 0 | damage to plant, BRSNN (rate 250, 20 DAA): 0 | damage to plant, HORVW (rate 250, 20 DAA): 0 | damage to plant, SINAR (rate 250, 20 DAA): 0 | damage to plant, ALOMY (rate 500, 20 DAA): 10 | damage to plant, AVEFA (rate 500, 20 DAA): 10 | damage to plant, BEAVA (rate 500, 20 DAA): 0 | damage to plant, BROTE (rate 500, 20 DAA): 0 | damage to plant, BRSNN (rate 500, 20 DAA): 0 | damage to plant, HORVW (rate 500, 20 DAA): 20 | damage to plant, SINAR (rate 500, 20 DAA): 0 | ABUTH damage to plant (100=total damage; 0=no damage) (Rates 15, 20 DAA): 0 | AMARE damage to plant (100=total damage; 0=no damage) (Rates 15, 20 DAA): 0 | DIGSA damage to plant (100=total damage; 0=no damage) (Rates 15, 20 DAA): 0 | ECHCG damage to plant (100=total damage; 0=no damage) (Rates 15, 20 DAA): 0 | ORYSA damage to plant (100=total damage; 0=no damage) (Rates 15, 20 DAA): 0 | PANMI damage to plant (100=total damage; 0=no damage) (Rates 15, 20 DAA): 0 | SETFA damage to plant (100=total damage; 0=no damage) (Rates 15, 20 DAA): 0 | ABUTH damage to plant (100=total damage; 0=no damage) (Rates 30, 20 DAA): 0 | AMARE damage to plant (100=total damage; 0=no damage) (Rates 30, 20 DAA): 0 | DIGSA damage to plant (100=total damage; 0=no damage) (Rates 30, 20 DAA): 30 | ECHCG damage to plant (100=total damage; 0=no damage) (Rates 30, 20 DAA): 10 | ORYSA damage to plant (100=total damage; 0=no damage) (Rates 30, 20 DAA): 0 | PANMI damage to plant (100=total damage; 0=no damage) (Rates 30, 20 DAA): 0 | SETFA damage to plant (100=total damage; 0=no damage) (Rates 30, 20 DAA): 0 | ABUTH damage to plant (100=total damage; 0=no damage) (Rates 60, 20 DAA): 0 | AMARE damage to plant (100=total damage; 0=no damage) (Rates 60, 20 DAA): 0 | DIGSA damage to plant (100=total damage; 0=no damage) (Rates 60, 20 DAA): 80 | ECHCG damage to plant (100=total damage; 0=no damage) (Rates 60, 20 DAA): 50 | ORYSA damage to plant (100=total damage; 0=no damage) (Rates 60, 20 DAA): 0 | PANMI damage to plant (100=total damage; 0=no damage) (Rates 60, 20 DAA): 0 | SETFA damage to plant (100=total damage; 0=no damage) (Rates 60, 20 DAA): 0 | ABUTH damage to plant (100=total damage; 0=no damage) (Rates 130, 20 DAA): 0 | AMARE damage to plant (100=total damage; 0=no damage) (Rates 130, 20 DAA): 0 | DIGSA damage to plant (100=total damage; 0=no damage) (Rates 130, 20 DAA): 90 | ECHCG damage to plant (100=total damage; 0=no damage) (Rates 130, 20 DAA): 70 | ORYSA damage to plant (100=total damage; 0=no damage) (Rates 130, 20 DAA): 0 | PANMI damage to plant (100=total damage; 0=no damage) (Rates 130, 20 DAA): 0 | SETFA damage to plant (100=total damage; 0=no damage) (Rates 130, 20 DAA): 30 | ABUTH damage to plant (100=total damage; 0=no damage) (Rates 250, 20 DAA): 20 | AMARE damage to plant (100=total damage; 0=no damage) (Rates 250, 20 DAA): 0 | DIGSA damage to plant (100=total damage; 0=no damage) (Rates 250, 20 DAA): 90 | ECHCG damage to plant (100=total damage; 0=no damage) (Rates 250, 20 DAA): 90 | ORYSA damage to plant (100=total damage; 0=no damage) (Rates 250, 20 DAA): 0 | PANMI damage to plant (100=total damage; 0=no damage) (Rates 250, 20 DAA): 0 | SETFA damage to plant (100=total damage; 0=no damage) (Rates 250, 20 DAA): 60 | ABUTH damage to plant (100=total damage; 0=no damage) (Rates 500, 20 DAA): 20 | AMARE damage to plant (100=total damage; 0=no damage) (Rates 500, 20 DAA): 10 | DIGSA damage to plant (100=total damage; 0=no damage) (Rates 500, 20 DAA): 90 | ECHCG damage to plant (100=total damage; 0=no damage) (Rates 500, 20 DAA): 90 | ORYSA damage to plant (100=total damage; 0=no damage) (Rates 500, 20 DAA): 0 | PANMI damage to plant (100=total damage; 0=no damage) (Rates 500, 20 DAA): 0 | SETFA damage to plant (100=total damage; 0=no damage) (Rates 500, 20 DAA): 90
